Consider 13 compounds from patent publication US7462717B2, “C6-and C9-substituted chromeno[4,3-c]isoxazoline derivatives and their use as anti-depressants” (Janssen Pharmaceutica N.V., priority 2002, dated 2008).

One assay concerns the target T1, hα2C receptor (Homo sapiens, UniProt P18825).
T1 construct: expressed in transfected cells
T1 sequence (P18825 1-462): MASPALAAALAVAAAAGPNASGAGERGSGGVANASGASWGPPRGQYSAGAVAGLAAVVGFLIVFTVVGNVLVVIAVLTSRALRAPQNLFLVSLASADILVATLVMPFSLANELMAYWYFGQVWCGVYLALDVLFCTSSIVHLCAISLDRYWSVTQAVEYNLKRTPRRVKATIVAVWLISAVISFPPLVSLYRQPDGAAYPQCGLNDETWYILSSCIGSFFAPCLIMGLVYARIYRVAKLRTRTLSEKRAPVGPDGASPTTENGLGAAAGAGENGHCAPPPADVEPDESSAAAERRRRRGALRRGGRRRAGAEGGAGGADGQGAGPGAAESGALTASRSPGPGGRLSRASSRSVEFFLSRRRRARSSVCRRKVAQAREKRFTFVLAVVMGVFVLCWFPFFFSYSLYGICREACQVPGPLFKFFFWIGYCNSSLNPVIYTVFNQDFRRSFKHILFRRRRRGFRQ
Briefly: Radioligand binding experiment for α2C-adrenergic receptor ([3H]-raulwolscine). The settings on record: membranes of CHO cells transfected with human α2C receptor; [3H]raulwolscine 1 nM. The protocol: (§1) The interaction of the compounds of Formula (I) with hα2-receptors and h5-HT-transporters was assessed in in vitro radioligand binding experiments. In general, a low concentration of a radioligand with a high binding affinity for a particular receptor or transporter is incubated with a sample of a tissue preparation enriched in a particular receptor or transporter or with a preparation of cells expressing cloned human receptors in a buffered medium. During the incubation, the radioligand binds to the receptor or transporter. When equilibrium of binding is reached, the receptor bound radioactivity is separated from the non-bound radioactivity, and the receptor- or transporter-bound activity is counted. The interaction of the test compounds with the receptor is assessed in competition binding experiments. Various concentrations of the test compound are added to the incubation mixture containing the receptor- or transporter preparation and the radioligand. The test compound in proportion to its binding affinity and its concentration inhibits binding of the radioligand. The radioligand used for hα2A, hα2B and hα2C receptor binding was [^3H]-raulwolscine and for the h5-HT transporter was [^3H]paroxetine.
(§2) CHO cells, stabile transfected with human adrenergic-α2A-, -α2B or α2C receptor cDNA, were cultured in Dulbecco's Modified Eagle's Medium (DMEM)/Nutrient mixture Ham's F12 (ratio 1:1) (Gibco, Gent-Belgium) supplemented with 10% heat inactivated fetal calf serum (Life Technologies, Merelbeke-Belgium) and antibiotics (100 IU/ml penicillin G, 100 μg/ml streptomycin sulphate, 110 μg/ml pyruvic acid and 100 μg/ml L-glutamine). One day before collection, cells were induced with 5 mM sodiumbutyrate. Upon 80-90% of confluence, cells were scraped in phosphate buffered saline without Ca^2+ and Mg^2+ and collected by centrifugation at 1500×g for 10 min. The cells were homogenised in Tris-HCl 50 mM using an Ultraturrax homogenizer and centrifuged for 10 min at 23,500×g. The pellet was washed once by resuspension and rehomogenization and the final pellet was resuspended in Tris-HCl, divided in 1 ml aliquots and stored at −70° C.
(§3) Membranes were thawed and re-homogenized in incubation buffer (glycylglycine 25 mM, pH 8.0). In a total volume of 500 μl, 2-10 μg protein was incubated with [^3H]raulwolscine (NET-722) (New England Nuclear, USA) (1 nM final concentration) with or without competitor for 60 min at 25° C. followed by rapid filtration over GF/B filter using a Filtermate 196 harvester (Packard, Meriden, Conn.). Filters were rinsed extensively with ice-cold rinsing buffer (Tris-HCl 50 mM pH 7.4). Filter-bound radioactivity was determined by scintillation counting in a Topcount (Packard, Meriden, Conn.) and results were expressed as counts per minute (cpm). Non-specific binding was determined in the presence of 1 μM oxymetazoline for hα2A- and hα2B-receptors and 1 μM spiroxatrine for hα2C receptors.
(§4) Data from assays in the presence of compound were calculated as a percentage of total binding measured in the absence of test compound. Inhibition curves, plotting percent of total binding versus the log value of the concentration of the test compound, were automatically generated, and sigmoidal inhibition curves were fitted using non-linear regression. The pIC50 values of test compounds were derived from individual curves. All compounds according to Formula (I) produced an inhibition at least at the hα2A site (but often also at the hα2B and hα2C sites) and simultaneously at the 5-HT transporter site of more than 50% (PIC50) at a test concentration ranging between 10^−6 M and 10^−9 M in a concentration-dependent manner.

The next assay has as its target T2, h5-HT transporter (Homo sapiens, UniProt P31645).
T2 construct: Human platelet membranes (Oceanix Biosciences Corporation, Hanover, Md., USA) were thawed; tissue Oceanix Biosciences Corporation; host or cells: human platelet membranes
Nature of the assay: Radioligand binding experiment for 5-HT transporter ([3H]paroxetine). The note with it: human platelet membranes; [3H]paroxetine 0.5 nM; read-out: 5-HTT (converted). How it is done: as §1
Human platelet membranes (Oceanix Biosciences Corporation, Hanover, Md., USA) were thawed, diluted in buffer (Tris-HCl 50 mM, 120 mM NaCl and 5 mM KCl) and quickly (max 3 s) homogenised with an Ultraturrax homogenizer. In a total volume of 250 μL, 50-100 μg protein was incubated with [^3H]paroxetine (NET-869) (New England Nuclear, USA) (0.5 nM final concentration) with or without competitor for 60 min at 25° C. Incubation was stopped by rapid filtration of the incubation mixture over GF/B filters, pre-wetted with 0.1% polyethyleneamine, using a Filtermate 196 harvester (Packard, Meriden, Conn.). Filters were rinsed extensively with ice-cold buffer and radioactivity on the filters was counted in a Topcount liquid scintillation counter (Packard, Meriden, Conn.). Data were expressed as cpm. Imipramine (at 1 μM final concentration) was used to determine the non-specific binding.
as §4

The next assay deals with T3, hα2A receptor (Homo sapiens, UniProt P08913).
T3 construct: expressed in transfected cells
T3 sequence (P08913 1-465): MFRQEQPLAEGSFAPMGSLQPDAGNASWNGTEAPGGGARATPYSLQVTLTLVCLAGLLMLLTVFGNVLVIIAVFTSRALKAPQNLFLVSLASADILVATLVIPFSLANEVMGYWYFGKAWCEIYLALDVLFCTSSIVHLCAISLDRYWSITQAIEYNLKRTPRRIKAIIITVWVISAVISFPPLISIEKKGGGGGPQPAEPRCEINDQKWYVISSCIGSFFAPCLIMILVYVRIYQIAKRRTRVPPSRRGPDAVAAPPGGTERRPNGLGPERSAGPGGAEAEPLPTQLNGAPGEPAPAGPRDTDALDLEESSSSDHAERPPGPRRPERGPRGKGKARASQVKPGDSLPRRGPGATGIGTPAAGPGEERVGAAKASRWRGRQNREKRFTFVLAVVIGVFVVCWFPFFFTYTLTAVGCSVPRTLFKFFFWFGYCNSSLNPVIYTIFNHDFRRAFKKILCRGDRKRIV
Briefly: Radioligand binding experiment for α2A-adrenergic receptor ([3H]-raulwolscine). The note with it: membranes of CHO cells transfected with human α2A receptor; [3H]raulwolscine 1 nM. How it is done: as §1, §2, §3, §4

Another assay has as its target T4, hα2B receptor (Homo sapiens, UniProt P18089).
T4 construct: expressed in transfected cells
T4 sequence (P18089 1-450): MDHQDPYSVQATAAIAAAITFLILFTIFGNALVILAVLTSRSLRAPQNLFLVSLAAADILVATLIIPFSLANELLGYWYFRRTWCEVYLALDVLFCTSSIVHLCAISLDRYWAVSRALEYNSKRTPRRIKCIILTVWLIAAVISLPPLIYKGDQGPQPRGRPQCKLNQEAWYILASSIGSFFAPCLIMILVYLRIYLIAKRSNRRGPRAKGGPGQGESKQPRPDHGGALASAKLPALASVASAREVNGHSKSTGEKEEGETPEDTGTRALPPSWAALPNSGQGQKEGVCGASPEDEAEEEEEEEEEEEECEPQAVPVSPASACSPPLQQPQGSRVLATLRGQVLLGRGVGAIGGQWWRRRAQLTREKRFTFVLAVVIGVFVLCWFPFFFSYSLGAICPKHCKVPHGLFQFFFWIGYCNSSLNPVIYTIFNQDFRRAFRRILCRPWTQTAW
Briefly: Radioligand binding experiment for α2B-adrenergic receptor ([3H]-raulwolscine). The settings on record: membranes of CHO cells transfected with human α2B receptor; [3H]raulwolscine 1 nM. The protocol:
as §1, §2, §3, §4

T2 sequence (P31645 whole entry): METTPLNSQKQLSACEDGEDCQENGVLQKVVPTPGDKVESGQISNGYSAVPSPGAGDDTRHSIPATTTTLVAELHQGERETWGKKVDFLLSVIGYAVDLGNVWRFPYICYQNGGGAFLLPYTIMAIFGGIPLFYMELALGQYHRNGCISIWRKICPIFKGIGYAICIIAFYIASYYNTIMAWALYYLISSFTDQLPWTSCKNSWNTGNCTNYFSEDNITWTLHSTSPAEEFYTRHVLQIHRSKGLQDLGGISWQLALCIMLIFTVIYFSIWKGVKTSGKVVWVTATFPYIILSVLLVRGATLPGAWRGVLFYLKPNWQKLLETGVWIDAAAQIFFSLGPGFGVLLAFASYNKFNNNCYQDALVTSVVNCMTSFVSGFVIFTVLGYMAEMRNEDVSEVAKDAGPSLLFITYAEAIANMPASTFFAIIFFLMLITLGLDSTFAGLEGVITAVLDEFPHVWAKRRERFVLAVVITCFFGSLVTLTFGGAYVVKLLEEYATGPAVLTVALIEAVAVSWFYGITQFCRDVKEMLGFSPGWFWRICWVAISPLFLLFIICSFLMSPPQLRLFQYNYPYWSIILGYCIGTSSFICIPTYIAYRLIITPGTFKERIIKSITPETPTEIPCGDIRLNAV

Regarding `COc1cc2c(c(C#N)c1OC)OCC1C2=NOC1CN1CCN(CC(C)=Cc2ccc(F)cc2)CC1` (centres unmarked) [Compound 19], the IC50 was 15.8 nM on hα2C receptor, 126 nM on h5-HT transporter, 10 nM on hα2A receptor and 20 nM on hα2B receptor.
The matching figures for `COc1cc2c(c(I)c1OC)OCC1C2=NOC1CN1CCN(CC(C)=Cc2ccc(F)cc2)CC1` (centres unmarked) [Compound 18]: 25.1 nM, 50.1 nM, 25.1 nM and 31.6 nM.
The matching figures for `COc1cc2c(c(Nc3ccncc3)c1OC)OC[C@@H]1C2=NO[C@H]1CN1CCN(C/C(C)=C/c2ccc(F)cc2)CC1` (relative stereo) [Compound 21, (3-{4-[3-(4-fluoro-phenyl)-2-methyl-allyl]-piperazin-1-ylmethyl}-7,8-dimethoxy-3a,4-dihydro-3H-chromeno [4,3-c]isoxazol-6-yl)-pyridin-4-yl-amine]: 6.31 nM, 398 nM, 63.1 nM and 15.8 nM.
The matching figures for `CCNC(=O)Nc1cccc2c1OCC1C2=NOC1CN1CCN(CC(C)=Cc2ccccc2)CC1` (centres unmarked) [Compound 17]: 15.8 nM, 10 nM, 63.1 nM and 6.31 nM.
As for `COc1cccc2c1C1=NOC(CN3CCN(CC(C)=Cc4ccccc4)CC3)C1CO2` (centres unmarked) [Compound 8], the IC50 was 2.51 nM on hα2C receptor, 251 nM on h5-HT transporter, 2 nM on hα2A receptor and 1 nM on hα2B receptor.
For `CC(=Cc1ccccc1)CN1CCN(CC2ON=C3c4cccc(NCc5ccccc5)c4OCC32)CC1` (centres unmarked) [Compound 23], in that order: 20 nM, 126 nM, 63.1 nM and 50.1 nM.
Turning to `CC(=Cc1ccccc1)CN1CCN(CC2ON=C3c4cccc(NCCN5CCCC5)c4OCC32)CC1` (centres unmarked) [Compound 16], the IC50 on hα2C receptor was 7.94 nM; at h5-HT transporter, 25.1 nM; on hα2A receptor, 39.8 nM; on hα2B receptor it was 3.98 nM.
With `COc1cccc2c1OC[C@@H]1C2=NO[C@H]1CN1CCN(C/C(C)=C/c2ccccc2)CC1` (relative stereo) [Compound 6, 6-methoxy-3-[4-(2-methyl-3-phenyl-allyl)-piperazin-1-ylmethyl]-3a,4-dihydro-3H-chromeno[4,3-c]isoxazole], the IC50 was 1.58 nM at hα2C receptor, 50.1 nM at h5-HT transporter, 7.94 nM on hα2A receptor and 2 nM at hα2B receptor.
As for `COc1cc2c(c(Br)c1OC)OCC1C2=NOC1CN1CCN(C/C(C)=C/c2ccccc2)CC1` (centres unmarked) [Compound 1, 6-Bromo-7,8-dimethoxy-3-[4-(2-methyl-3-phenyl-allyl)-piperazin-1-ylmethyl]-3a,4-dihydro-3H-chromeno[4,3-c]isoxazole], the values for the IC50 at hα2C receptor, at h5-HT transporter and at hα2A receptor were 1 nM, 12.6 nM and 2 nM, respectively.
For `CCOC(=O)c1c(OC)c(OC)cc2c1OC[C@@H]1C2=NO[C@H]1CN1CCN(C/C(C)=C/c2ccccc2)CC1` (single isomer, unassigned) [Compound 4, 7,8-dimethoxy-3-[4-(2-methyl-3-phenyl-allyl)-piperazin-1-ylmethyl]-3a,4-dihydro-3H-chromeno[4,3-c]isoxazole-6-carboxylic acid ethyl ester], the IC50 at hα2C receptor was 1.26 nM; at h5-HT transporter it was 63.1 nM; on hα2A receptor, 6.31 nM; on hα2B receptor, 3.98 nM.
For `COc1cc2c(c(N3CCC3=O)c1OC)OCC1C2=NOC1CN1CCN(CC(C)=Cc2ccc(F)cc2)CC1` (centres unmarked) [Compound 20], in that order: 31.6 nM, 126 nM, 79.4 nM and 25.1 nM.
For `COC(=O)c1c(OC)c(OC)cc2c1OCC1C2=NOC1CN1CCN(C/C(C)=C/c2ccccc2)CC1` (single isomer, unassigned) [Compound 5], in that order: 1.26 nM, 158 nM, 2 nM and 5.01 nM.
In the case of `COc1cc2c(c(C)c1OC)OC[C@@H]1C2=NO[C@H]1CN1CCN(C/C(C)=C/c2ccccc2)CC1` (single isomer, unassigned) [Compound 3, 7,8-dimethoxy-6-methyl-3-[4-(2-methyl-3-phenyl-allyl)-piperazin-1-ylmethyl]-3a,4-dihydro-3H-chromeno[4,3-c]isoxazole], the IC50 on hα2C receptor was 0.398 nM; on h5-HT transporter it was 31.6 nM; on hα2A receptor it was 1.58 nM.
